Results published in US4581460A, “Substituted 1-benzoyl-2-phenyliminoimidazolidine derivatives” (Chemie Linz Aktiengesellschaft, priority 1982, dated 1986).

test system: phenyl-p-quinone-induced writhing syndrome of the mouse; test: Writhing test (phenyl-p-quinone-induced writhing syndrome of the mouse); type: in vivo; conditions: Mus musculus; oral, 60 min before i.p. phenyl-p-quinone; dose protecting 50% of the animals; read-out: ED50 (antiwrithing potency)
Method: 60 minutes after oral application of the test compounds mice were injected intraperitoneally with 0.3 ml of a 0.02% phenyl-p-quinone solution in a alcohol-water mixture (1:25 v/v). After the phenyl-p-quinone injection each mouse was observed during a span of 20 minutes.
The ED50 values (antiwrithing potency) were computed according to the method of N. R. Thompsom and C. S. Weil (Biometrics 8, 1952, 51-54, 249-263). The ED50 value refers to the dose (mg of test compound/kg of mouse) protecting 50% of the animals from pain in the writhing test.

Question: With COc1ccc(C(=O)N2CCNC2=Nc2c(Cl)cccc2Cl)cc1OC [1-(3,4-dimethoxybenzoyl)-2-(2,6-dichlorophenylimino)-imidazolidine] as the molecule, how does the ED50 read?
Answer: Its ED50 is 4.36 mg/kg.

Question: Which ED50 does the source give for COc1ccc(C(=O)N2CCNC2=Nc2c(C)cccc2Cl)cc1OC [1-(3,4-dimethoxybenzoyl)-2-(2-chloro-6-methylphenylimino)-imidazolidine] here?
Answer: Its ED50 is 4.42 mg/kg.

Question: For Cc1ccc(C(=O)N2CCNC2=Nc2c(Cl)cccc2Cl)cc1F [1-(3-fluoro-4-methylbenzoyl)-2-(2,6-dichlorophenylimino)-imidazolidine], which ED50 is on record?
Answer: The ED50 was 0.5 mg/kg.

Question: With Cc1cc(C(=O)N2CCNC2=Nc2c(Cl)cccc2Cl)ccc1[N+](=O)[O-] [1-(3-methyl-4-nitrobenzoyl)-2-(2,6-dichlorophenylimino)-imidazolidine] as the molecule, how does the ED50 read?
Answer: The ED50 was 0.68 mg/kg.

Question: Which ED50 does the source give for CS(=O)(=O)c1ccc(C(=O)N2CCNC2=Nc2c(Cl)cccc2Cl)cc1 [1-(p-methylsulfonylbenzoyl)-2-(2,6-dichlorophenylimino)-imidazolidine] here?
Answer: Its ED50 is 0.75 mg/kg.

Question: For CCCOc1ccc(C(=O)N2CCNC2=Nc2c(Cl)cccc2Cl)cc1 [1-(p-n-propoxybenzoyl)-2-(2,6-dichlorophenylimino)-imidazolidine], which ED50 is on record?
Answer: Its ED50 is 0.46 mg/kg.

Question: With O=C(c1cccc(Cl)c1)N1CCNC1=Nc1c(Cl)cccc1Cl [1-m-chlorobenzoyl-2-(2,6-dichlorophenylimino)-imidazolidine] as the molecule, how does the ED50 read?
Answer: Its ED50 is 0.81 mg/kg.

Question: With N#Cc1cccc(C(=O)N2CCNC2=Nc2c(Cl)cccc2Cl)c1 [1-m-cyanobenzoyl-2-(2,6-dichlorophenylimino)-imidazolidine] as the molecule, how does the ED50 read?
Answer: Its ED50 is 0.25 mg/kg.

Question: Which ED50 does the source give for O=C(c1cccc(F)c1)N1CCNC1=Nc1cccc(Cl)c1Cl [1-m-fluorobenzoyl-2-(2,3-dichlorophenylimino)-imidazolidine] here?
Answer: Its ED50 is 2.08 mg/kg.

Question: For O=C(c1ccc(Cl)cc1)N1CCNC1=Nc1cccc(Cl)c1Cl [1-p-chlorobenzoyl-2-(2,3-dichlorophenylimino)-imidazolidine], which ED50 is on record?
Answer: The ED50 was 1.26 mg/kg.

Question: For O=C(c1ccc(Cl)cc1)N1CCNC1=Nc1ccc(Cl)cc1Cl [1-p-chlorobenzoyl-2-(2,4-dichlorophenylimino)-imidazolidine], which ED50 is on record?
Answer: Its ED50 is 3.54 mg/kg.

Question: With CCOc1ccc(C(=O)N2CCNC2=Nc2c(Cl)cccc2Cl)cc1 [1-p-ethoxybenzoyl-2-(2,6-dichlorophenylimino)-imidazolidine] as the molecule, how does the ED50 read?
Answer: The ED50 was 0.98 mg/kg.

Question: With O=C(c1ccc(F)cc1)N1CCNC1=Nc1cccc(Cl)c1Cl [1-p-fluorobenzoyl-2-(2,3-dichlorophenylimino)-imidazolidine] as the molecule, how does the ED50 read?
Answer: The ED50 was 1.15 mg/kg.

Question: With O=C(c1ccc(F)cc1)N1CCNC1=Nc1cc(Cl)ccc1Cl [1-p-fluorobenzoyl-2-(2,5-dichlorophenylimino)-imidazolidine] as the molecule, how does the ED50 read?
Answer: The ED50 was 10 mg/kg.

Question: With O=C(c1ccc(F)cc1)N1CCNC1=Nc1c(Cl)cccc1Cl [1-p-fluorobenzoyl-2-(2,6-dichlorophenylimino)-imidazolidine] as the molecule, how does the ED50 read?
Answer: The ED50 was 0.81 mg/kg.

Question: With Cc1cccc(Cl)c1N=C1NCCN1C(=O)c1ccc(F)cc1 [1-p-fluorobenzoyl-2-(2-chloro-6-methylphenylimino)imidazolidine] as the molecule, how does the ED50 read?
Answer: Its ED50 is 1 mg/kg.

Question: For CC(C)Oc1ccc(C(=O)N2CCNC2=Nc2c(Cl)cccc2Cl)cc1 [1-p-isopropoxybenzoyl-2-(2,6-dichlorophenylimino)-imidazolidine], which ED50 is on record?
Answer: Its ED50 is 0.54 mg/kg.

Question: For COc1ccc(C(=O)N2CCNC2=Nc2cccc(Cl)c2Cl)cc1 [1-p-methoxybenzoyl-2-(2,3-dichlorophenylimino)-imidazolidine], which ED50 is on record?
Answer: Its ED50 is 0.99 mg/kg.

Question: For COc1ccc(C(=O)N2CCNC2=Nc2c(Cl)cccc2Cl)cc1 [1-p-methoxybenzoyl-2-(2,6-dichlorophenylimino)-imidazolidine], which ED50 is on record?
Answer: Its ED50 is 0.63 mg/kg.

Question: Which ED50 does the source give for CS(=O)(=O)c1ccc(C(=O)N2CCNC2=Nc2cccc(Cl)c2Cl)cc1 [1-p-methylsulfonylbenzoyl-2-(2,3-dichlorophenylimino)-imidazolidine] here?
Answer: Its ED50 is 1.04 mg/kg.

Question: Which ED50 does the source give for O=C(c1ccc([N+](=O)[O-])cc1)N1CCNC1=Nc1ccc(Cl)cc1Cl [1-p-nitrobenzoyl-2-(2,4-dichlorophenylimino)-imidazolidine] here?
Answer: Its ED50 is 1.77 mg/kg.

same assay, conditions: oral, 60 min before i.p. phenyl-p-quinone; dose protecting 50% of the animals

Question: With CCCCOc1ccc(C(=O)N2CCNC2=Nc2cccc(Cl)c2Cl)cc1 [1-p-n-butoxybenzoyl-2-(2,3-dichlorophenylimino-imidazolidine] as the molecule, how does the “ED50 (antiwrithing potency)” value read?
Answer: The value was 4.49 mg of test compound/kg of mous.

same assay, conditions: po; writhing test, mouse; dose protecting 50% of the animals; read-out: ED50 in the writhing test

Question: With N#Cc1ccc(C(=O)N2CCNC2=Nc2c(Cl)cccc2Cl)cc1 [1-p-cyanobenzoyl-2-(2,6-dichlorophenylimino)-imidazolidine] as the molecule, how does the ED50 read?
Answer: The ED50 was 0.55 mg/kg.

Question: Which ED50 does the source give for CC(C)=CCN1CCC2(C)c3cc(O)ccc3CC1C2C (centres unmarked) [Pentazocin, reference compound] here?
Answer: The ED50 was 168 mg/kg.

test system: not given; test: not given; conditions: U.S. Pat. No. 4,142,051; cited from earlier work

Question: For O=C(C1CC=CCC1)N1CCNC1=Nc1c(Cl)cccc1Cl (centres unmarked) [1-(cyclohex-3-en-1-oyl)-2-(2,6-dichlorophenylimino)-imidazolidine], which “analgesic properties (prior art)” value is on record?
Answer: Its value is “exhibit analgesic properties”.

test system: not given; test: not given; conditions: U.S. Pat. No. 3,988,345; U.S. Pat. No. 4,389,403; cited from earlier work

Question: With O=C(c1ccccc1)N1CCNC1=Nc1c(Cl)cccc1Cl [benclonidine, 1-benzoyl-2-(2,6-dichlorophenylimino)-imidazolidine] as the molecule, how does the “antihypertensive / hypotensive effect (prior art)” value read?
Answer: Its value is “marked antihypertensive effect”.
